Assay results published in patent publication US20230114728A1 (Venatorx Pharmaceuticals, Inc., priority 2019, published 2023).
In brackets after ≈: the same amount, converted by molar mass.

Key:
Assay in all cases: Broth microdilution MIC in CAMHB
Type in all cases: cell-based
[1] = system: A. baumannii ATCC 19606; conditions: Acinetobacter baumannii, ATCC19606; MHB; read-out: Minimum Inhibitory Concentration, A. baumannii ATCC 19606
In short: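 MIC, read by eye, is the lowest compound concentration giving no bacterial growth after 16-20 h at 37° C. Test compounds are serially diluted 2-fold in CAMHB and seeded with 2-8×10^5 CFU/mL of bacteria taken from a 3-5 h shaking culture, following CLSI methods.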

[2] = system: E. coli 901C; conditions: Escherichia coli; E. coli 901C (hyper-permeable); MHB; read-out: Minimum Inhibitory Concentration, E. coli 901C
In short: (§1)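 CLSI microdilution; CAMHB; inoculum 2-8×10^5 CFU/mL from 3-5 h 37° C culture; 2-fold compound series; 16-20 h, 37° C; MIC = lowest well without visible growth.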

[3] = system: E. coli AG100A; conditions: Escherichia coli, read-out: Minimum Inhibitory Concentration, E. coli AG100A
In short: as §1

[4] = system: E. coli AG100; conditions: Escherichia coli; E. coli AG100 (wild-type parent); MHB; read-out: Minimum Inhibitory Concentration, E. coli AG100
In short: as §1

[5] = system: E. coli ATCC 25922; conditions: Escherichia coli, ATCC25922; E. coli ATCC 25922; MHB; read-out: Minimum Inhibitory Concentration, E. coli 25922
In short: as §1

[6] = system: E. coli D22; conditions: Escherichia coli; E. coli D22 (hyper-permeable); MHB; read-out: Minimum Inhibitory Concentration, E. coli D22
In short: as §1

[7] = system: K. pneumoniae 848844 producing SHV-11 and KPC-2; conditions: Klebsiella pneumoniae, read-out: Minimum Inhibitory Concentration, K. pneumoniae 848844
In short: as §1

[8] = system: K. pneumoniae SI-117 producing VIM-1; conditions: Klebsiella pneumoniae, read-out: Minimum Inhibitory Concentration, K. pneumoniae SI-117
In short: as §1

[9] = system: K. pneumoniae UMM producing SHV-5 and KPC-2; conditions: Klebsiella pneumoniae, read-out: Minimum Inhibitory Concentration, K. pneumoniae UMM
In short: as §1

[10] = system: P. aeruginosa (ΔmexAB-oprM); conditions: Pseudomonas aeruginosa, read-out: Minimum Inhibitory Concentration, P. aeruginosa ΔmexAB-OprM
In short: as §1

[11] = system: P. aeruginosa ATCC 27853; conditions: Pseudomonas aeruginosa, ATCC27853; MHB; read-out: Minimum Inhibitory Concentration, P. aeruginosa ATCC 27853
In short: as §1

[12] = system: P. aeruginosa ATCC 35151; conditions: Pseudomonas aeruginosa, ATCC35151; MHB; hyper-permeable strain; read-out: Minimum Inhibitory Concentration, P. aeruginosa ATCC 35151
In short: as §1

SMILES	MIC [1]	MIC [2]	MIC [3]	MIC [4]	MIC [5]	MIC [6]	MIC [7]	MIC [8]	MIC [9]	MIC [10]	MIC [11]	MIC [12]
NCCN1CCN(C(=O)N[C@@H](C(=O)N[C@H]2Cc3cccc(C(=O)O)c3OB2O)c2c(O)cc(O)cc2F)C(=O)C1=O (single isomer, unassigned) [Example 194]	32 to 64 µg/mL (≈ 55.8 to 112 µM)	0.5 to 1 µg/mL (≈ 0.872 to 1.74 µM)	2 to 4 µg/mL (≈ 3.49 to 6.98 µM)	8 to 16 µg/mL (≈ 14 to 27.9 µM)	8 to 16 µg/mL (≈ 14 to 27.9 µM)	2 to 4 µg/mL (≈ 3.49 to 6.98 µM)	32 to 64 µg/mL (≈ 55.8 to 112 µM)	32 to 64 µg/mL (≈ 55.8 to 112 µM)	8 to 16 µg/mL (≈ 14 to 27.9 µM)	8 to 16 µg/mL (≈ 14 to 27.9 µM)	> 128 µg/mL	0.5 to 1 µg/mL (≈ 0.872 to 1.74 µM)
NCCCN1CCN(C(=O)N[C@@H](C(=O)N[C@H]2Cc3cccc(C(=O)O)c3OB2O)c2c(O)cc(O)cc2F)C(=O)C1=O (single isomer, unassigned) [Example 195]	32 to 64 µg/mL (≈ 54.5 to 109 µM)	0.5 to 1 µg/mL (≈ 0.851 to 1.7 µM)	2 to 4 µg/mL (≈ 3.41 to 6.81 µM)	8 to 16 µg/mL (≈ 13.6 to 27.2 µM)	8 to 16 µg/mL (≈ 13.6 to 27.2 µM)	2 to 4 µg/mL (≈ 3.41 to 6.81 µM)	32 to 64 µg/mL (≈ 54.5 to 109 µM)	32 to 64 µg/mL (≈ 54.5 to 109 µM)	8 to 16 µg/mL (≈ 13.6 to 27.2 µM)	8 to 16 µg/mL (≈ 13.6 to 27.2 µM)	> 128 µg/mL	0.5 to 1 µg/mL (≈ 0.851 to 1.7 µM)
NCCN1CCN(C(=O)N[C@@H](C(=O)N[C@H]2Cc3cccc(C(=O)O)c3OB2O)c2ccc(O)c([N+](=O)[O-])c2)C(=O)C1=O (single isomer, unassigned) [Example 199]	> 128 µg/mL	0.5 to 1 µg/mL (≈ 0.856 to 1.71 µM)	2 to 4 µg/mL (≈ 3.42 to 6.85 µM)	> 128 µg/mL	32 to 64 µg/mL (≈ 54.8 to 110 µM)	8 to 16 µg/mL (≈ 13.7 to 27.4 µM)	> 128 µg/mL	> 128 µg/mL	> 128 µg/mL	8 to 16 µg/mL (≈ 13.7 to 27.4 µM)	> 128 µg/mL	0.5 to 1 µg/mL (≈ 0.856 to 1.71 µM)
NCCN1CCN(C(=O)N[C@H](C(=O)N[C@H]2Cc3cccc(C(=O)O)c3OB2O)c2ccc(O)c([N+](=O)[O-])c2)C(=O)C1=O (single isomer, unassigned) [Example 200]	> 128 µg/mL	8 to 16 µg/mL (≈ 13.7 to 27.4 µM)	32 to 64 µg/mL (≈ 54.8 to 110 µM)	> 128 µg/mL	> 128 µg/mL	> 128 µg/mL	> 128 µg/mL	> 128 µg/mL	> 128 µg/mL	> 128 µg/mL	> 128 µg/mL	2 to 4 µg/mL (≈ 3.42 to 6.85 µM)
CCN1CCN(C(=O)N[C@H](C(=O)N[C@H]2Cc3cccc(C(=O)O)c3OB2O)c2ccc(C(=O)O)c(F)c2Cl)C(=O)C1=O (single isomer, unassigned) [Example 202]	> 128 µg/mL	0.5 to 1 µg/mL (≈ 0.827 to 1.65 µM)	32 to 64 µg/mL (≈ 52.9 to 106 µM)	> 128 µg/mL	> 128 µg/mL	8 to 16 µg/mL (≈ 13.2 to 26.5 µM)	> 128 µg/mL	> 128 µg/mL	> 128 µg/mL	> 128 µg/mL	> 128 µg/mL	2 to 4 µg/mL (≈ 3.31 to 6.61 µM)
CCN1CCN(C(=O)N[C@@H](C(=O)N[C@H]2Cc3cccc(C(=O)O)c3OB2O)c2ccc(C(=O)O)c(F)c2Cl)C(=O)C1=O (single isomer, unassigned) [Example 203]	> 128 µg/mL	< 0.25 µg/mL	8 to 16 µg/mL (≈ 13.2 to 26.5 µM)	32 to 64 µg/mL (≈ 52.9 to 106 µM)	> 128 µg/mL	2 to 4 µg/mL (≈ 3.31 to 6.61 µM)	> 128 µg/mL	> 128 µg/mL	32 to 64 µg/mL (≈ 52.9 to 106 µM)	8 to 16 µg/mL (≈ 13.2 to 26.5 µM)	> 128 µg/mL	0.5 to 1 µg/mL (≈ 0.827 to 1.65 µM)
NCCN1CCN(C(=O)N[C@H](C(=O)N[C@H]2Cc3cccc(C(=O)O)c3OB2O)c2c(F)cccc2F)C(=O)C1=O (single isomer, unassigned) [Example 204]	> 128 µg/mL	8 to 16 µg/mL (≈ 14.3 to 28.6 µM)	32 to 64 µg/mL (≈ 57.2 to 114 µM)	> 128 µg/mL	> 128 µg/mL	> 128 µg/mL	> 128 µg/mL	> 128 µg/mL	> 128 µg/mL	> 128 µg/mL	> 128 µg/mL	32 to 64 µg/mL (≈ 57.2 to 114 µM)
NCCN1CCN(C(=O)N[C@@H](C(=O)N[C@H]2Cc3cccc(C(=O)O)c3OB2O)c2c(F)cccc2Cl)C(=O)C1=O (single isomer, unassigned) [Example 205]	> 128 µg/mL	8 to 16 µg/mL (≈ 13.9 to 27.8 µM)	8 to 16 µg/mL (≈ 13.9 to 27.8 µM)	> 128 µg/mL	> 128 µg/mL	32 to 64 µg/mL (≈ 55.6 to 111 µM)	> 128 µg/mL	> 128 µg/mL	> 128 µg/mL	32 to 64 µg/mL (≈ 55.6 to 111 µM)	> 128 µg/mL	8 to 16 µg/mL (≈ 13.9 to 27.8 µM)
NCCN1CCN(C(=O)N[C@H](C(=O)N[C@H]2Cc3cccc(C(=O)O)c3OB2O)c2c(F)cccc2Cl)C(=O)C1=O (single isomer, unassigned) [Example 206]	> 128 µg/mL	32 to 64 µg/mL (≈ 55.6 to 111 µM)	32 to 64 µg/mL (≈ 55.6 to 111 µM)	> 128 µg/mL	> 128 µg/mL	> 128 µg/mL	> 128 µg/mL	> 128 µg/mL	> 128 µg/mL	> 128 µg/mL	> 128 µg/mL	32 to 64 µg/mL (≈ 55.6 to 111 µM)
CCN1CCN(C(=O)NC(C(=O)N[C@H]2Cc3ccc(F)c(C(=O)O)c3OB2O)c2ncc(C(=O)O)cc2F)C(=O)C1=O (stereo partly drawn) [Example 33, 6-(2-(((R)-8-carboxy-7-fluoro-2-hydroxy-3,4-dihydro-2H-benzo[e][1,2]oxaborinin-3-yl)amino)-1-(4-ethyl-2,3-dioxopiperazine-1-carboxamido)-2-oxoethyl)-5-fluoronicotinic acid]	> 128 µg/mL	2 to 4 µg/mL (≈ 3.39 to 6.79 µM)	> 128 µg/mL	> 128 µg/mL	> 128 µg/mL	2 to 4 µg/mL (≈ 3.39 to 6.79 µM)	> 128 µg/mL	> 128 µg/mL	> 128 µg/mL	32 to 64 µg/mL (≈ 54.3 to 109 µM)	> 128 µg/mL	0.5 to 1 µg/mL (≈ 0.849 to 1.7 µM)
NCCCN1CCN(C(=O)NC(C(=O)N[C@H]2Cc3cccc(C(=O)O)c3OB2O)c2c(F)cc(O)cc2F)C(=O)C1=O (stereo partly drawn) [Example 183, (3R)-3-(2-(4-(3-aminopropyl)-2,3-dioxopiperazine-1-carboxamido)-2-(2,6-difluoro-4-hydroxyphenyl)acetamido)-2-hydroxy-3,4-dihydro-2H-benzo[e][1,2]oxaborinine-8-carboxylic acid]	> 128 µg/mL	0.5 to 1 µg/mL (≈ 0.848 to 1.7 µM)	2 to 4 µg/mL (≈ 3.39 to 6.79 µM)	8 to 16 µg/mL (≈ 13.6 to 27.2 µM)	8 to 16 µg/mL (≈ 13.6 to 27.2 µM)	2 to 4 µg/mL (≈ 3.39 to 6.79 µM)	32 to 64 µg/mL (≈ 54.3 to 109 µM)	32 to 64 µg/mL (≈ 54.3 to 109 µM)	8 to 16 µg/mL (≈ 13.6 to 27.2 µM)	8 to 16 µg/mL (≈ 13.6 to 27.2 µM)	> 128 µg/mL	2 to 4 µg/mL (≈ 3.39 to 6.79 µM)
CCN1CCN(C(=O)NC(C(=O)N[C@H]2Cc3cccc(C(=O)O)c3OB2O)c2cc([N+](=O)[O-])c(O)cc2F)C(=O)C1=O (stereo partly drawn) [Example 184, (3R)-3-(2-(4-ethyl-2,3-dioxopiperazine-1-carboxamido)-2-(2-fluoro-4-hydroxy-5-nitrophenyl)acetamido)-2-hydroxy-3,4-dihydro-2H-benzo[e][1,2]oxaborinine-8-carboxylic acid]	> 128 µg/mL	< 0.25 µg/mL	2 to 4 µg/mL (≈ 3.41 to 6.81 µM)	32 to 64 µg/mL (≈ 54.5 to 109 µM)	32 to 64 µg/mL (≈ 54.5 to 109 µM)	2 to 4 µg/mL (≈ 3.41 to 6.81 µM)	> 128 µg/mL	> 128 µg/mL	32 to 64 µg/mL (≈ 54.5 to 109 µM)	8 to 16 µg/mL (≈ 13.6 to 27.2 µM)	> 128 µg/mL	0.5 to 1 µg/mL (≈ 0.851 to 1.7 µM)
CCN1CCN(C(=O)NC(C(=O)N[C@H]2Cc3cccc(C(=O)O)c3OB2O)c2ccc(O)c(Cl)c2F)C(=O)C1=O (stereo partly drawn) [Example 185, (3R)-3-(2-(3-chloro-2-fluoro-4-hydroxyphenyl)-2-(4-ethyl-2,3-dioxopiperazine-1-carboxamido)acetamido)-2-hydroxy-3,4-dihydro-2H-benzo[e][1,2]oxaborinine-8-carboxylic acid]	> 128 µg/mL	< 0.25 µg/mL	2 to 4 µg/mL (≈ 3.47 to 6.94 µM)	32 to 64 µg/mL (≈ 55.5 to 111 µM)	32 to 64 µg/mL (≈ 55.5 to 111 µM)	2 to 4 µg/mL (≈ 3.47 to 6.94 µM)	> 128 µg/mL	32 to 64 µg/mL (≈ 55.5 to 111 µM)	32 to 64 µg/mL (≈ 55.5 to 111 µM)	2 to 4 µg/mL (≈ 3.47 to 6.94 µM)	> 128 µg/mL	0.5 to 1 µg/mL (≈ 0.867 to 1.73 µM)
CCN1CCN(C(=O)NC(C(=O)N[C@H]2Cc3cccc(C(=O)O)c3OB2O)c2c(F)cc(NC(C)=O)cc2F)C(=O)C1=O (stereo partly drawn) [Example 188, (3R)-3-(2-(4-acetamido-2,6-difluorophenyl)-2-(4-ethyl-2,3-dioxopiperazine-1-carboxamido)acetamido)-2-hydroxy-3,4-dihydro-2H-benzo[e][1,2]oxaborinine-8-carboxylic acid]	> 128 µg/mL	< 0.25 µg/mL	2 to 4 µg/mL (≈ 3.33 to 6.65 µM)	32 to 64 µg/mL (≈ 53.2 to 106 µM)	32 to 64 µg/mL (≈ 53.2 to 106 µM)	2 to 4 µg/mL (≈ 3.33 to 6.65 µM)	> 128 µg/mL	> 128 µg/mL	32 to 64 µg/mL (≈ 53.2 to 106 µM)	32 to 64 µg/mL (≈ 53.2 to 106 µM)	> 128 µg/mL	0.5 to 1 µg/mL (≈ 0.831 to 1.66 µM)
